Paper PMC5008840, “α-Mangostin Extraction from the Native Mangosteen (Garcinia mangostana L.) and the Binding Mechanisms of α-Mangostin to HSA or TRF” (PLoS ONE, 2016)

Assays:
human transferrin (TRF) = target: T1, human transferrin (TRF) (Homo sapiens, UniProt P02787); test: intrinsic fluorescence quenching titration; assay type: binding; conditions: 298 K; 0.1 M Tris-HCl pH 7.3, 0.1 M NaCl; 10 μM protein; excitation 282 nm; n = 1.09; double-log
T1 construct: gene TF; mature glycoprotein, 679 residues, 19 disulfide bonds, about 77 kD
T1 sequence (P02787 20-698): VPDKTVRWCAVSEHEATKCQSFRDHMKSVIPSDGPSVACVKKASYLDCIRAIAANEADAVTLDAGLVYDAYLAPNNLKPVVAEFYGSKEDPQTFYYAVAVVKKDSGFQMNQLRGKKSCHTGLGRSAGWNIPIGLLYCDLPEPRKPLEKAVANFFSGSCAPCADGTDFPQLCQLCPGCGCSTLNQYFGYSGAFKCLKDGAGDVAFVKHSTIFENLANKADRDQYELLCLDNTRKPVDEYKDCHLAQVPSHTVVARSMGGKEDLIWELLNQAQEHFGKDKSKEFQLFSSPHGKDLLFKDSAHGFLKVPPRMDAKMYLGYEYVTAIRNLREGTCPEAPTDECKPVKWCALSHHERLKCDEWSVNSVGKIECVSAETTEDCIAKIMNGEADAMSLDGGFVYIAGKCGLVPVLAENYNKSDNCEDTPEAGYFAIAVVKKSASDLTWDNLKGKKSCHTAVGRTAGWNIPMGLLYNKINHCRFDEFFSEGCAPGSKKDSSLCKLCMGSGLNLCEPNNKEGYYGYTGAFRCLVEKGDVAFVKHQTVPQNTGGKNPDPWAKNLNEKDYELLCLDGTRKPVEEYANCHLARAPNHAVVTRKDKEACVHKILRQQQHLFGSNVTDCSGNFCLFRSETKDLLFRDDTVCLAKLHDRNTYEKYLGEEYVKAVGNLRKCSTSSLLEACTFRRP
Description: intrinsic fluorescence quenching titration on human transferrin (TRF)

[1] = target: T2, human serum albumin (HSA) (Homo sapiens, UniProt P02768); test: intrinsic fluorescence quenching titration; assay type: binding; conditions: 298 K; 0.1 M Tris-HCl pH 7.3, 0.1 M NaCl; 10 μM protein; excitation 282 nm; n = 1.15; double-log
T2 construct: gene ALB; mature protein, 585 residues, 17 disulfide bonds, about 67 kD
T2 sequence (P02768 25-609): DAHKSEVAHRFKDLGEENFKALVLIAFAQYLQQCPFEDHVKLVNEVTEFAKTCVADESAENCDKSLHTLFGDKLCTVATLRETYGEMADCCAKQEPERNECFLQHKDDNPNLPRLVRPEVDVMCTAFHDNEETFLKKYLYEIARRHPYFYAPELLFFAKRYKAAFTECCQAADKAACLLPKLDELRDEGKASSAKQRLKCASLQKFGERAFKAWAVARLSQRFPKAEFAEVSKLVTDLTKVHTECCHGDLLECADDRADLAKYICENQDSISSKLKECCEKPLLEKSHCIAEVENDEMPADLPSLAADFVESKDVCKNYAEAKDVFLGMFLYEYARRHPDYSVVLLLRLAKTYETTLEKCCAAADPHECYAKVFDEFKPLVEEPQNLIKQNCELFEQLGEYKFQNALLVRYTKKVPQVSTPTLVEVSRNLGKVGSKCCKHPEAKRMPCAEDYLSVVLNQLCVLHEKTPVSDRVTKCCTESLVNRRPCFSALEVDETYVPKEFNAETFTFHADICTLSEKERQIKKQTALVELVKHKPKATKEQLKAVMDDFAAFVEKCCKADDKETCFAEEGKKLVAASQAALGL
Description: intrinsic fluorescence quenching titration on human serum albumin (HSA)

- K (human transferrin (TRF)): 146520 L/mol
- K [1]: 648320 L/mol
Compound: COc1c(O)cc2oc3cc(O)c(CC=C(C)C)c(O)c3c(=O)c2c1CC=C(C)C [α-mangostin, 1,3,6-trihydroxy-7-methoxy-2,8-bis(3-methyl-2-butenyl)-9H-xanthen-9-one]
